Where a SMILES comes first, the peptide text is derived from it.
Legend:
[1] = system: Klebsiella pneumoniae SSI3010; details: SSI3010
Summary of the method: (§1)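 First, bacterial colonies are suspended in saline and adjusted to 0.5 McFarland. Next, the suspension is diluted into cation-adjusted Mueller-Hinton II broth (approx. 5×10^5 CFU/mL). Finally, it is added to two-fold serially diluted peptide, with polysorbate 80 at 0.002% final.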

[2] = system: Escherichia coli ATCC 25922; details: ATCC 25922
Summary of the method: as §1

[3] = system: Escherichia coli MCR-1 Af 45; details: Mueller-Hinton broth II, no visible growth after 18-20 hours at 35° C.
Summary of the method: as §1

[4] = system: human red blood cells (hRBC); assay type: cell-based; details: red cells of human, 1 h, 0.2 g/L
Summary of the method: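 Percent lysis was derived from supernatant absorbance at 540 nm relative to full lysis by 2.5% Triton X-100 (PBS defines 0%). Compounds, 200 μg/mL, were exposed for 1 h at 37° C to a 20% (v/v) suspension of washed human red cells.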

SMILES: CC[C@H](C)[C@H](NC(=O)[C@@H]1C[C@@H](N)CN1C(=O)[C@@H](N)C(C)C)C(=O)N[C@H](C(=O)N[C@@H](Cc1ccc(O)cc1)C(=O)N[C@@H]1C(=O)N[C@@H](CC(N)=O)C(=O)N[C@@H](CCCNC(=N)N)C(=O)N[C@@H](CCN)C(=O)N[C@@H]([C@@H](C)O)C(=O)N[C@H](CCN)C(=O)N[C@@H](CCCCN)C(=O)N[C@H](C(=O)N[C@@H](CCN)C(=O)N[C@H](C(=O)N[C@@H](Cc2ccc(O)cc2)C(=O)O)[C@@H](C)O)CSSC1(C)C)[C@@H](C)O [Example 120, Val-Pro((4R)NH2)-Ile-Thr-Tyr-Pen-Asn-Arg-Dab-Thr-^DDab-Lys-Cys-Dab-Thr-Tyr] (HELM PEPTIDE1{V.[N[C@@H]1C[C@@H](C(=O)[*:2])N([*:1])C1].I.T.Y.[Pen].N.R.[Dab].T.[NCC[C@@H](N[*:1])C(=O)[*:2]].K.C.[Dab].T.Y}$PEPTIDE1,PEPTIDE1,6:R3-13:R3$$$V2.0)
- Klebsiella pneumoniae SSI3010 MIC [1]: 0.5 µg/mL
- Escherichia coli ATCC 25922 MIC [2]: 0.25 µg/mL
- Escherichia coli MCR-1 Af 45 MIC [3]: 0.125 µg/mL
- Hemolysis at 0.2 g/L [4]: <1%

SMILES: CC[C@H](C)[C@H](NC(=O)[C@@H]1C[C@@H](O)CN1C(=O)[C@@H](N)C(C)C)C(=O)N[C@@H](CCCCNC)C(=O)N[C@@H](Cc1ccc(O)cc1)C(=O)N[C@@H]1C(=O)N[C@@H](CC(N)=O)C(=O)N[C@@H](CCCNC(=N)N)C(=O)N[C@@H](CCN)C(=O)N[C@@H]([C@@H](C)O)C(=O)N[C@H](CCN)C(=O)N[C@@H](CCCCN)C(=O)N[C@H](C(=O)N[C@@H](CCN)C(=O)N[C@@H](CCCNC(=N)N)C(=O)N[C@@H](Cc2ccc(O)cc2)C(=O)O)CSSC1(C)C [Example 125, Val-Hyp-Ile-Lys(Me)-Tyr-Pen-Asn-Arg-Dab-Thr-^DDab-Lys-Cys-Dab-Arg-Tyr] (HELM PEPTIDE1{V.[Hyp].I.[CNCCCC[C@H](N[*:1])C(=O)[*:2]].Y.[Pen].N.R.[Dab].T.[NCC[C@@H](N[*:1])C(=O)[*:2]].K.C.[Dab].R.Y}$PEPTIDE1,PEPTIDE1,6:R3-13:R3$$$V2.0)
- Klebsiella pneumoniae SSI3010 MIC [1]: 0.5 µg/mL
- Escherichia coli ATCC 25922 MIC [2]: 0.125 µg/mL
- Escherichia coli MCR-1 Af 45 MIC [3]: 0.03125 µg/mL
- Hemolysis at 0.2 g/L [4]: <1%

SMILES: CC[C@H](C)[C@@H]1NC(=O)[C@@H](NC(=O)[C@H](Cc2ccc(O)cc2)NC(=O)[C@@H](NC(=O)[C@@H](NC(=O)[C@@H]2C[C@@H](O)CN2C(=O)[C@@H](N)C(C)C)[C@@H](C)CC)[C@@H](C)O)C(C)(C)SSC[C@@H](C(=O)N[C@@H](CCN)C(=O)N[C@@H](CCCN)C(=O)N[C@@H](Cc2ccc(O)cc2)C(=O)O)NC(=O)[C@H](CCCCN)NC(=O)[C@@H](CCN)NC(=O)[C@H]([C@@H](C)O)NC(=O)[C@H](CCN)NC(=O)[C@H](CCCNC(=N)N)NC1=O [Example 88, Val-Hyp-Ile-Thr-Tyr-Pen-Ile-Arg-Dab-Thr-^DDab-Lys-Cys-Dab-Orn-Tyr] (HELM PEPTIDE1{V.[Hyp].I.T.Y.[Pen].I.R.[Dab].T.[NCC[C@@H](N[*:1])C(=O)[*:2]].K.C.[Dab].[Orn].Y}$PEPTIDE1,PEPTIDE1,6:R3-13:R3$$$V2.0)
- Klebsiella pneumoniae SSI3010 MIC [1]: 0.25 µg/mL
- Escherichia coli ATCC 25922 MIC [2]: 0.125 µg/mL
- Escherichia coli MCR-1 Af 45 MIC [3]: 0.0625 µg/mL
- Hemolysis at 0.2 g/L [4]: <1%

SMILES: CC[C@H](C)[C@H](NC(=O)[C@@H](NC(=O)[C@@H]1C[C@@H](O)CN1C(=O)[C@@H](N)C(C)C)[C@@H](C)CC)C(=O)N[C@@H](Cc1ccc(O)cc1)C(=O)N[C@@H]1C(=O)N[C@@H](CC(N)=O)C(=O)N[C@@H](CCCNC(=N)N)C(=O)N[C@@H](CCN)C(=O)N[C@@H]([C@@H](C)O)C(=O)N[C@H](CCN)C(=O)N[C@@H](CCCCN)C(=O)N[C@H](C(=O)N[C@@H](CCN)C(=O)N[C@@H](CO)C(=O)N[C@@H](Cc2ccc(O)cc2)C(=O)O)CSSC1(C)C [Example 105, Val-Hyp-Ile-Ile-Tyr-Pen-Asn-Arg-Dab-Thr-^DDab-Lys-Cys-Dab-Ser-Tyr] (HELM PEPTIDE1{V.[Hyp].I.I.Y.[Pen].N.R.[Dab].T.[NCC[C@@H](N[*:1])C(=O)[*:2]].K.C.[Dab].S.Y}$PEPTIDE1,PEPTIDE1,6:R3-13:R3$$$V2.0)
- Klebsiella pneumoniae SSI3010 MIC [1]: 0.5 µg/mL
- Escherichia coli ATCC 25922 MIC [2]: 0.25 µg/mL
- Escherichia coli MCR-1 Af 45 MIC [3]: 0.125 µg/mL
- Hemolysis at 0.2 g/L [4]: <1%

SMILES: CC[C@H](C)[C@H](NC(=O)[C@@H](NC(=O)[C@@H]1C[C@@H](O)CN1C(=O)[C@@H](N)C(C)C)[C@@H](C)CC)C(=O)N[C@@H](Cc1ccc(O)cc1)C(=O)N[C@@H]1C(=O)N[C@@H](CC(N)=O)C(=O)N[C@@H](CCCNC(=N)N)C(=O)N[C@@H](CCN)C(=O)N[C@@H](CO)C(=O)N[C@H](CCN)C(=O)N[C@@H]([C@@H](C)CC)C(=O)N[C@H](C(=O)N[C@@H](CCN)C(=O)N[C@@H](CCCN)C(=O)N[C@@H](Cc2ccc(O)cc2)C(=O)O)CSSC1(C)C [Example 96, Val-Hyp-Ile-Ile-Tyr-Pen-Asn-Arg-Dab-Ser-^DDab-Ile-Cys-Dab-Orn-Tyr] (HELM PEPTIDE1{V.[Hyp].I.I.Y.[Pen].N.R.[Dab].S.[NCC[C@@H](N[*:1])C(=O)[*:2]].I.C.[Dab].[Orn].Y}$PEPTIDE1,PEPTIDE1,6:R3-13:R3$$$V2.0)
- Klebsiella pneumoniae SSI3010 MIC [1]: 0.5 µg/mL
- Escherichia coli ATCC 25922 MIC [2]: 0.25 µg/mL
- Escherichia coli MCR-1 Af 45 MIC [3]: 0.25 µg/mL
- Hemolysis at 0.2 g/L [4]: <1%

SMILES: CC[C@H](C)[C@@H]1NC(=O)[C@@H](CCN)NC(=O)[C@H]([C@@H](C)O)NC(=O)[C@H](CCN)NC(=O)[C@H](CCCNC(=N)N)NC(=O)[C@H](CC(N)=O)NC(=O)[C@@H](NC(=O)[C@H](Cc2ccc(O)cc2)NC(=O)[C@@H](NC(=O)[C@@H](NC(=O)[C@@H]2C[C@@H](N)CN2C(=O)[C@@H](N)C(C)C)[C@@H](C)CC)[C@@H](C)O)C(C)(C)SSC[C@@H](C(=O)N[C@@H](CCN)C(=O)N[C@H](C(=O)N[C@@H](Cc2ccc(O)cc2)C(=O)O)[C@@H](C)O)NC1=O [Example 117, Val-Pro((4R)NH2)-Ile-Thr-Tyr-Pen-Asn-Arg-Dab-Thr-^DDab-Ile-Cys-Dab-Thr-Tyr] (HELM PEPTIDE1{V.[N[C@@H]1C[C@@H](C(=O)[*:2])N([*:1])C1].I.T.Y.[Pen].N.R.[Dab].T.[NCC[C@@H](N[*:1])C(=O)[*:2]].I.C.[Dab].T.Y}$PEPTIDE1,PEPTIDE1,6:R3-13:R3$$$V2.0)
- Klebsiella pneumoniae SSI3010 MIC [1]: 0.25 µg/mL
- Escherichia coli ATCC 25922 MIC [2]: 0.125 µg/mL
- Escherichia coli MCR-1 Af 45 MIC [3]: 0.125 µg/mL
- Hemolysis at 0.2 g/L [4]: <1%

SMILES: CC[C@H](C)[C@H](NC(=O)[C@@H]1C[C@@H](N)CN1C(=O)[C@@H](N)C(C)C)C(=O)N[C@H](C(=O)N[C@@H](Cc1ccc(O)cc1)C(=O)N[C@@H]1C(=O)N[C@@H](CC(N)=O)C(=O)N[C@@H](CCCNC(=N)N)C(=O)N[C@@H](CCN)C(=O)N[C@@H]([C@@H](C)O)C(=O)N[C@H](CCN)C(=O)N[C@@H](CCCCN)C(=O)N[C@H](C(=O)N[C@@H](CO)C(=O)N[C@H](C(=O)N[C@@H](Cc2ccc(O)cc2)C(=O)O)[C@@H](C)O)CSSC1(C)C)[C@@H](C)O [Example 119, Val-Pro((4R)NH2)-Ile-Thr-Tyr-Pen-Asn-Arg-Dab-Thr-^DDab-Lys-Cys-Ser-Thr-Tyr] (HELM PEPTIDE1{V.[N[C@@H]1C[C@@H](C(=O)[*:2])N([*:1])C1].I.T.Y.[Pen].N.R.[Dab].T.[NCC[C@@H](N[*:1])C(=O)[*:2]].K.C.S.T.Y}$PEPTIDE1,PEPTIDE1,6:R3-13:R3$$$V2.0)
- Klebsiella pneumoniae SSI3010 MIC [1]: 0.25 µg/mL
- Escherichia coli ATCC 25922 MIC [2]: 0.25 µg/mL
- Escherichia coli MCR-1 Af 45 MIC [3]: 0.25 µg/mL
- Hemolysis at 0.2 g/L [4]: <1%

SMILES: CC[C@H](C)[C@H](NC(=O)[C@@H](NC(=O)[C@@H]1C[C@@H](O)CN1C(=O)[C@@H](N)C(C)C)[C@@H](C)CC)C(=O)N[C@@H](Cc1ccc(O)cc1)C(=O)N[C@@H]1C(=O)N[C@@H](CC(N)=O)C(=O)N[C@@H](CCCNC(=N)N)C(=O)N[C@@H](CCN)C(=O)N[C@@H]([C@@H](C)O)C(=O)N[C@H](CCN)C(=O)N[C@@H]([C@@H](C)CC)C(=O)N[C@H](C(=O)N[C@@H](CCN)C(=O)N[C@@H](CCCN)C(=O)N[C@@H](Cc2ccc(O)cc2)C(=O)O)CSSC1(C)C [Example 97, Val-Hyp-Ile-Ile-Tyr-Pen-Asn-Arg-Dab-Thr-^DDab-Ile-Cys-Dab-Orn-Tyr] (HELM PEPTIDE1{V.[Hyp].I.I.Y.[Pen].N.R.[Dab].T.[NCC[C@@H](N[*:1])C(=O)[*:2]].I.C.[Dab].[Orn].Y}$PEPTIDE1,PEPTIDE1,6:R3-13:R3$$$V2.0)
- Klebsiella pneumoniae SSI3010 MIC [1]: 0.5 µg/mL
- Escherichia coli ATCC 25922 MIC [2]: 0.25 µg/mL
- Escherichia coli MCR-1 Af 45 MIC [3]: 0.25 µg/mL
- Hemolysis at 0.2 g/L [4]: <1%

SMILES: CC[C@H](C)[C@H](NC(=O)[C@@H]1C[C@@H](O)CN1C(=O)[C@@H](N)C(C)C)C(=O)N[C@H](C(=O)N[C@@H](Cc1ccc(O)cc1)C(=O)N[C@@H]1C(=O)N[C@@H](CC(N)=O)C(=O)N[C@@H](CCCNC(=N)N)C(=O)N[C@@H](CCN)C(=O)N[C@@H]([C@@H](C)O)C(=O)N[C@H](CCN)C(=O)N[C@@H](CCCCN)C(=O)N[C@H](C(=O)N[C@@H](CCN)C(=O)N[C@@H](CCCNC(=N)N)C(=O)N[C@@H](Cc2ccc(O)cc2)C(=O)O)CSSC1(C)C)C(C)(C)O [Example 126, Val-Hyp-Ile-Val(3OH)-Tyr-Pen-Asn-Arg-Dab-Thr-^DDab-Lys-Cys-Dab-Arg-Tyr] (HELM PEPTIDE1{V.[Hyp].I.[CC(C)(O)[C@H](N[*:1])C(=O)[*:2]].Y.[Pen].N.R.[Dab].T.[NCC[C@@H](N[*:1])C(=O)[*:2]].K.C.[Dab].R.Y}$PEPTIDE1,PEPTIDE1,6:R3-13:R3$$$V2.0)
- Klebsiella pneumoniae SSI3010 MIC [1]: 0.125 µg/mL
- Escherichia coli ATCC 25922 MIC [2]: 0.0625 µg/mL
- Escherichia coli MCR-1 Af 45 MIC [3]: 0.0625 µg/mL
- Hemolysis at 0.2 g/L [4]: <1%
